Laboratory results published in patent publication US20140309107A1.

What was measured:
Botrytis cinerea = Botrytis cinerea Test (Roses)/Preventive (field trial); details: young rose plants in the field, sprayed twice five days apart, leaves and stems evaluated fifteen days after second application; B9 (RHAPSODY) 2 mL/L, F196 (SCALA) 1.25 mL/L, combination 2 mL/L + 1.25 mL/L
Description: The application rate of Bacillus subtilis AQ713 refers to the amount of (1.34%) Bacillus subtilis AQ713 (NRRL Accession No. B-21661) (i.e., spore preparation) contained in a formulation of AQ713.
The rose plants were grown in the field under conditions where disease pressure from Botrytis cinerea was present. Each treatment was applied twice to the plants at intervals five days apart. The efficacy of the treatments in preventing Botrytis infection on the leaves and stems of the plants was evaluated fifteen days after the second application.

Alternaria solani = test: Alternaria Test (Tomatoes)/Preventive; assay type: in vivo; details: young tomato plants sprayed preventively, evaluated 3 days after inoculation; application rate B19 500 ppm, F206 100 ppm, B19 + F206 500 + 100 ppm (1:0.2); 0% = untreated control, 100% = no disease
Text: A solution comprising 8.5×10^8 CFU/g (1.34%) of this strain was used.

| SMILES | Efficacy in % Found (activity observed) (Botrytis cinerea) [%] | Efficacy in % Found (activity observed) (Alternaria solani) [%] |
| --- | --- | --- |
| Cc1cc(C)nc(Nc2ccccc2)n1 [F196 pyrimethanil, pyrimethanil] | 40 | – |
| C#CCOc1ccc(CCNC(=O)C(OCC#C)c2ccc(Cl)cc2)cc1OC (centres unmarked) [F206 mandipropamid, mandipropamid] | – | 0 |
